Experimental data from patent EP2650284A1, “Heterocyclic derivatives as metabotropic glutamate receptor modulators” (Merz Pharma GmbH & Co. KGaA, priority 2012, dated 2013).

Assays:
mGluR5 binding site = target: T1, mGluR5 binding site (Rattus norvegicus, UniProt P31424); assay: [3H]-M-MPEP displacement studies on rat cortical membranes; settings: Table A3, [3H]-M-MPEP 2 nM, 4°C for 1 h, median, read-out: Ki (MMPEP)
T1 construct: from tissue; host or cells: cortex of adult male Sprague-Dawley rats, membrane preparation
T1 sequence (P31424 21-1203): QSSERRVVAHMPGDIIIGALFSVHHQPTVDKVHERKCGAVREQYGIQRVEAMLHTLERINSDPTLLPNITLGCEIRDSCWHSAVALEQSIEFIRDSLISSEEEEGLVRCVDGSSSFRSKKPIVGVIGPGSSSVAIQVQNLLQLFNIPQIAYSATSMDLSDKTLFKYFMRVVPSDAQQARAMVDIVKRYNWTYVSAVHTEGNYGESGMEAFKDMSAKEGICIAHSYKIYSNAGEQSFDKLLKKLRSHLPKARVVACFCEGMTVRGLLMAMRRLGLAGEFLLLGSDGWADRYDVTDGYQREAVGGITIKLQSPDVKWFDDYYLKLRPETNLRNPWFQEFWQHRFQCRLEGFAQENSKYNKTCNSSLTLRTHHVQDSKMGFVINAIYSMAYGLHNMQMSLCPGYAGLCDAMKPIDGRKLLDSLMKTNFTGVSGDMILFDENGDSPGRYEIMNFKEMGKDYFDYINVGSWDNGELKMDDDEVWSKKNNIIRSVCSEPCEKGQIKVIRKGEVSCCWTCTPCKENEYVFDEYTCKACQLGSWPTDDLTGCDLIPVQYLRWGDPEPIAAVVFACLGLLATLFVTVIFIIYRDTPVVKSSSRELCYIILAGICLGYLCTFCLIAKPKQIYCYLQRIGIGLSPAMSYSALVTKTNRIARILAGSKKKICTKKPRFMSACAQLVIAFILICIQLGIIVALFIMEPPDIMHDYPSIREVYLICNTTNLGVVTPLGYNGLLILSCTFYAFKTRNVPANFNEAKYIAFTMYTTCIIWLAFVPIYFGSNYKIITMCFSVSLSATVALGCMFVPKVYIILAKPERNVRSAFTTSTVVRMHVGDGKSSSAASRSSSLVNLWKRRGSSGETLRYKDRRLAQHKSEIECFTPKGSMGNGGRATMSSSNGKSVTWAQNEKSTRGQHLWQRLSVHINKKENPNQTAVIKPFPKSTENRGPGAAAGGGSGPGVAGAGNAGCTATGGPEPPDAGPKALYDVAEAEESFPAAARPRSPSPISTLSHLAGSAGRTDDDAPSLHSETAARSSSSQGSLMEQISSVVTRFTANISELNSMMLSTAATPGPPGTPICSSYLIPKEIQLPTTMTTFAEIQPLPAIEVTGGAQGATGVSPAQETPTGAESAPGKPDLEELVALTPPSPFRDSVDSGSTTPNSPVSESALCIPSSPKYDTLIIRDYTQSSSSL
Description: Tissue preparation is performed according to Foster & Wong (Br. J. Pharmacol., 1987, 91, 403-409) with some modifications. Anaesthetised male Sprague-Dawley rats (200-250 g, Janvier, Le Genest-Isle, France) are decapitated and their brains are removed rapidly. The cortex is dissected out and processed as described by Parsons, et al. (J. Pharmacol. Exp. Ther., 1997, 283(3): 1264-1275). For isolation of the cell membranes, the cortices are homogenized in 20 volumes of ice-cold 0.32 M sucrose (Sigma-Aldrich, Taufkirchen, Germany) using a glass-Teflon homogenizer. The homogenate is centrifuged at 1000 x g for 10 minutes, the pellet is discarded and the supernatant centrifuged at 20,000 x g for 20 minutes. The resulting pellet is resuspended in 20 volumes of distilled water and centrifuged for 20 minutes at 8000 x g. The supernatant and the buffy coat are then centrifuged six times (48,000 x g for 20 minutes) in the presence of 5 mM Tris-HCl, pH 7.5. All centrifugation steps are carried out at 4°C. After resuspension in 5 volumes of 5 mM Tris-HCl, pH 7.5, the membrane suspension is frozen rapidly at -80°C.
On the day of assay, the membrane suspensions are thawed, centrifuged (48,000 x g for 20 minutes) and then resuspended in 50 mM Tris-HCl, pH 7.5 (assay buffer). The amount of protein in the final membrane preparation is determined according to the method of Lowry, et al. (J. Biol. Chem., 1951, 193, 256-275). The final concentration used for our studies is 400 µg / ml.
The Tecan robotic system designed for binding assays is loaded with the membrane solution, a 96 well stock plate containing the solutions for bound control (buffer/DMSO 10%), unlabeled MPEP (10 µM) for evaluation of non-specific binding, all compounds to be tested (at 20-fold concentrations), various empty 96-well plates for dilutions and the final assay plates, as well as a 96-well plate filled with the radioligand.
Before performing displacement studies, saturation experiments are performed to determine the equilibrium dissociation constant (Kd, Cheng and Prussoff, Biochem. Pharmacol., 1973, 22: 3099-3108) of [^3H]-M-MPEP, which is a parameter for the affinity of the radioligand to the binding site. On the basis of the saturation experiments, a final [^3H]-M-MPEP concentration of 2 nM was selected.
Firstly, the assay plates are loaded with membrane solution and are shaken at 4°C. The mother plates were then prepared by pipetting the compounds (n = 5) into assay buffer/10% DMSO to obtain the desired final concentrations. After transferring radioligand into the assay plates, the compounds are added (including the non-specific binding control containing MPEP). The final DMSO concentration is always 1 %. The assay plates are incubated and shaken at 4°C for 1 h, before the mixture is exhausted as rapidly as possible via a vacuum manifold using the Multiscreen HTS glass fibre (type B) high flow filter plates (Millipore, Schwalbach, Germany) under a constant vacuum of 450 mbar. The membranes are washed four times with cold assay buffer (100 µL). 50 µL of Ultima Gold scintillation cocktail (PerkinElmer) is added to the wet filter plates and incubated at rt overnight before counting the disintegration per minutes using a liquid scintillation counter (MicroBeta, PerkinElmer).
For the evaluation of the test compound binding affinity to the mGluR5 binding site and its potency to displace [^3H]-M-MPEP, the measured radioactivity of the radioligand alone was set as 100% bound control and the non-specific binding of the radioligand represented the 0% control. The residual radioactivity after displacement of the test compound was then corrected with respect to the set controls. Data are given as median IC50 and Ki, respectively.

[1] = target: T2, human metabotropic glutamate receptor mGluR5 (Homo sapiens, UniProt P41594); assay: Cytosolic calcium studies with stably transfected cells (h5CHO), functional assay of mGluR5 receptors; type: cell-based; settings: for h left shift: h5CHO cells; for EC50: positive modulators, h5CHO cells preincubated with modulator, stimulated by an EC20 concentration of L-glutamate, read-out: hEC50
T2 construct: expressed in transfected cells; host or cells: CHO-K1 (h5CHO), IPTG-inducible
T2 sequence (P41594 21-1212): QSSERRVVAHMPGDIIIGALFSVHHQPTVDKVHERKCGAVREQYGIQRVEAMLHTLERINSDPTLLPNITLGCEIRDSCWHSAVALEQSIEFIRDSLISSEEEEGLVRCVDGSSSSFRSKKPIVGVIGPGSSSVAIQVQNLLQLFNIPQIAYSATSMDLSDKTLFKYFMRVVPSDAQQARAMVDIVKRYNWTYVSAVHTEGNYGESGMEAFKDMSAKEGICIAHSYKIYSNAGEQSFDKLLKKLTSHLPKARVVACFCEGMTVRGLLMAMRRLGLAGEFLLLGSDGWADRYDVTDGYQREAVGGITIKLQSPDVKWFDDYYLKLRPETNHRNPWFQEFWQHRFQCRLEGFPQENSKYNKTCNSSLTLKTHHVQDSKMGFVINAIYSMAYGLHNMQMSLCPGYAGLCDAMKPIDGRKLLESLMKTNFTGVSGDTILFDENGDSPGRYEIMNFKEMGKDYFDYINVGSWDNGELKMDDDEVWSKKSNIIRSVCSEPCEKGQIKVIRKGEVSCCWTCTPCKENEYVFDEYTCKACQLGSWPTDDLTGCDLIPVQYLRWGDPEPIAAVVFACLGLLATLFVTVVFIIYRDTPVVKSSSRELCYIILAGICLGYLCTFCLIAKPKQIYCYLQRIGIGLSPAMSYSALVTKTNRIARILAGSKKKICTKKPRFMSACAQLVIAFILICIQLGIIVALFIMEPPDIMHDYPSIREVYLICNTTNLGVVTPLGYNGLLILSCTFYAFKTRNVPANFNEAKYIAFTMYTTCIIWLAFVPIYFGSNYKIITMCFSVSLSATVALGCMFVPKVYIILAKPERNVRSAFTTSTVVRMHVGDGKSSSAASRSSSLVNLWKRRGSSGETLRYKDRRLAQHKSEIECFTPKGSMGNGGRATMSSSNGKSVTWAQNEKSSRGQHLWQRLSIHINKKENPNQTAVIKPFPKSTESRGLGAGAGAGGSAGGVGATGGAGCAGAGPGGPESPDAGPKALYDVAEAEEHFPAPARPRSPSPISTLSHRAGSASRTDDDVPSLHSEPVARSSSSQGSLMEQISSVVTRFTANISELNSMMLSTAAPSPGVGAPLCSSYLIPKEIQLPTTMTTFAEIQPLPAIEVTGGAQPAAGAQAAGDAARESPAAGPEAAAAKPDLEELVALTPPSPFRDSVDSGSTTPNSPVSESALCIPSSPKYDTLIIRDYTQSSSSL
Summary of the method: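 IPTG-induced h5CHO (CHO-K1 expressing human mGluR5) loaded with calcium dye; compounds (0.5% DMSO) added 5 min before agonist. NAM IC50 against L-quisqualate at ~EC80; PAM EC50 with EC20 L-glutamate. FLIPR fluorescence, max-minus-min, % of maximal response, logistic fit.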

[2] = Table A3 (SAMs / very weak PAMs), agonist EC50 shift with 10 µM modulator or vehicle
[3] = Table A1, left shift of agonist EC50, dose response curves in the presence of 10 µM modulator or vehicle

CCCN1CCO[C@@H]2c3cc(C#Cc4cccc(C)c4)cnc3CC[C@@H]21 (racemic) [Example 21, (rac)-cis-4-Propyl-9-(m-tolylethynyl)-3,4,4a,5,6,10b-hexahydro-2H-[1,4]oxazino[2,3-f]quinoline]
Ki (mGluR5 binding site): 1.72 µM | h left shift [1, 2]: 1.3-fold

COC(=O)N1CC[C@H]2CCc3ncc(C#Cc4ccccc4)cc3[C@H]21 (racemic) [Example 29, (rac)-cis-Methyl 8-(phenylethynyl)-2,3,3a,4,5,9b-hexahydro-1H-pyrrolo[2,3-f]quinoline-1-carboxylate]
Ki (mGluR5 binding site): 0.289 µM | h left shift [1, 2]: 1.3-fold

CCCN1CC2(CCCc3ncc(C#Cc4cccc(C)c4)cc32)OC1=O (racemic) [Example 64, (rac)-3-Propyl-3'-(m-tolylethynyl)-7',8'-dihydro-6'H-spiro[oxazolidine-5,5'-quinolin]-2-one]
Ki (mGluR5 binding site): 0.399 µM | h left shift [1, 2]: 1.2-fold

CCCN1CC2(CCCc3ncc(C#Cc4cccc(F)c4)cc32)OC1=O (racemic) [Example 66, (rac)-3'-((3-Fluorophenyl)ethynyl)-3-propyl-7',8'-dihydro-6'H-spiro[oxazolidine-5,5'-quinolin]-2-one]
Ki (mGluR5 binding site): 0.857 µM | h left shift [1, 2]: 1.6-fold

COC1CCCc2ncc(C#Cc3ccccc3)cc21 (single isomer, unassigned) [Example 2, 5-Methoxy-3-(phenylethynyl)-5,6,7,8-tetrahydroquinoline]
Ki (mGluR5 binding site): 0.204 µM | h left shift [1, 3]: 2.3-fold | EC50 ([1]; Table A1): 0.0209 µM | h left shift [1, 2]: 2.3-fold

CCCN1CCO[C@@H]2c3cc(C#Cc4ccccc4)cnc3CC[C@@H]21 (single isomer, unassigned) [Example 17, cis-9-(Phenylethynyl)-4-propyl-3,4,4a,5,6,10b-hexahydro-2H-[1,4]oxazino[2,3-f]quinoline]
Ki (mGluR5 binding site): 3.62 µM | h left shift [1, 3]: 2.3-fold | EC50 ([1]; Table A1): 0.388 µM | h left shift [1, 2]: 2.3-fold

CC(C)C(=O)N1CCc2ncc(C#Cc3ccccc3)cc2C1 [Example 33, 2-Methyl-1-(3-(phenylethynyl)-7,8-dihydro-1,6-naphthyridin-6(5H)-yl)propan-1-one]
Ki (mGluR5 binding site): 0.395 µM | h left shift [1, 2]: 1.4-fold

CCOC(=O)N1CCc2ncc(C#Cc3ccccc3)cc2C1 [Example 40, Ethyl 3-(phenylethynyl)-7,8-dihydro-1,6-naphthyridine-6(5H)-carboxylate]
Ki (mGluR5 binding site): 0.0565 µM | h left shift [1, 2]: 1.3-fold
